Source: patent publication US20130040935A1, “CYCLIC KETO-ENOLS FOR THERAPY” (BAYER INTELLECTUAL PROPERTY GMBH, priority 2010, published 2013)
Where two headings read alike, the source gives them in different places.

Assays:
HCC-1937 = assay: Cell proliferation assay (CellTiter-Glo, 96 h), HCC-1937; assay type: cell-based; settings: Homo sapiens, HCC1937
Experimental: (§1) In accordance with the invention, the substances were tested in cell-based assays for the ability of the substances of inhibiting tumour cell proliferation after a 96-hour incubation with the substance. Cell viability was tested using the CellTiter-Glo® luminescent cell viability assay (Promega). The cells were sown at a density of 2000-5000 cells/well (depending on the cell line) in 100 μl growth medium on 96-well microtitre plates. For each cell line examined, cells were sown on a separate plate to determine the luminescence at t=0 hours and t=96 hours. After overnight incubation at 37° C., the luminescence values for the t=0 samples were determined. The dose plates for the t=96 hours points in time were treated with substances diluted with growth medium. The cells were then incubated at 37° C. for 96 hours, and the luminescence values for the t=96 hours sample were then determined. For data analysis, the t=0 values were subtracted from the t=96 hour values for treated and untreated samples. The differences in luminescence in percent between substance-treated samples and control values were used to determine the growth inhibition in percent.
(§2) The substances were tested in the following cell lines which represent the stated indications in an exemplary manner: […]

[1] = molecular target: T1, human ACC1 (acetyl-coenzyme A carboxylase alpha transcript variant 1) (Homo sapiens, UniProt Q13085); assay: Human ACC1 enzyme assay, Assay B1 (ADP-Glo); assay type: biochemical
T1 construct: FLAG (C); made in house; host or cells: baculovirus-infected insect cells (Hi5)

[2] = tested on: malonyl-CoA in a tumour (human MCF-7 breast cancer cells); assay: Mode-of-action experiment: intratumour malonyl-CoA in MCF-7 tumours after oral administration; assay type: in vivo, female nude mice (NMRI-nude (nu/nu)); settings: Mus musculus, after 7 h
Experimental: Mode-of-Action Experiment
Prior to the determination of the activity in the MCF-7 model, some of the test substances were examined in a “mode of action” experiment. The principle of this experiment is that short-term application of a test substance capable of inhibiting ACC1 and/or ACC2 in a living organism after oral administration reduces malonyl-CoA in a tumour. To this end, in the experiment 2 million human MCF-7 breast cancer cells were injected subcutaneously into female nude mice (NMRI-nude (nu/nu) mice, Taconic M&B A/S, 1 day beforehand administration of a pellet for the release of oestrogen over a period of at least 60 days). Once the tumour extended to an area of about 60-70 mm^2, the test substance was administered orally over a period of 1-3 days, and at defined points in time the intratumour content of malonyl-CoA was then determined and compared to the vehicle control. The method is described in Anal Chem 2008 Aug. 1; 80(15):5736-42. Epub 2008 Jul. 9.).

MCF7 = assay: Cell proliferation assay (CellTiter-Glo, 96 h), MCF7; assay type: cell-based; settings: Homo sapiens
Procedure, shortened: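 Cells seeded at 2000-5000 cells/well, incubated overnight at 37° C., then exposed to compound in growth medium for 96 hours at 37° C. Viability read by CellTiter-Glo luminescence; t=0 values subtracted from t=96 h values, and percent growth inhibition derived relative to untreated controls.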

MDA-MB-436 = assay: Cell proliferation assay (CellTiter-Glo, 96 h), MDA-MB-436; assay type: cell-based; settings: Homo sapiens
Experimental: as §1, §2

MDA-MB-468 = assay: Cell proliferation assay (CellTiter-Glo, 96 h), MDA-MB-468; assay type: cell-based; settings: Homo sapiens
Experimental: as §1, §2

[3] = molecular target: human ACC2 (acetyl-coenzyme A carboxylase 2) (Homo sapiens, UniProt O00763); assay: Human ACC2 enzyme assay, Assay B2 (ADP-Glo);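 further: human ACC2 activity read as ADP product, detected by luciferase glow luminescence after residual ATP removal, enzyme near 2 ng/µl in linear range, detection steps at 22 °C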
Sequence of human ACC2 (acetyl-coenzyme A carboxylase 2) (O00763 27-2458 limits assumed): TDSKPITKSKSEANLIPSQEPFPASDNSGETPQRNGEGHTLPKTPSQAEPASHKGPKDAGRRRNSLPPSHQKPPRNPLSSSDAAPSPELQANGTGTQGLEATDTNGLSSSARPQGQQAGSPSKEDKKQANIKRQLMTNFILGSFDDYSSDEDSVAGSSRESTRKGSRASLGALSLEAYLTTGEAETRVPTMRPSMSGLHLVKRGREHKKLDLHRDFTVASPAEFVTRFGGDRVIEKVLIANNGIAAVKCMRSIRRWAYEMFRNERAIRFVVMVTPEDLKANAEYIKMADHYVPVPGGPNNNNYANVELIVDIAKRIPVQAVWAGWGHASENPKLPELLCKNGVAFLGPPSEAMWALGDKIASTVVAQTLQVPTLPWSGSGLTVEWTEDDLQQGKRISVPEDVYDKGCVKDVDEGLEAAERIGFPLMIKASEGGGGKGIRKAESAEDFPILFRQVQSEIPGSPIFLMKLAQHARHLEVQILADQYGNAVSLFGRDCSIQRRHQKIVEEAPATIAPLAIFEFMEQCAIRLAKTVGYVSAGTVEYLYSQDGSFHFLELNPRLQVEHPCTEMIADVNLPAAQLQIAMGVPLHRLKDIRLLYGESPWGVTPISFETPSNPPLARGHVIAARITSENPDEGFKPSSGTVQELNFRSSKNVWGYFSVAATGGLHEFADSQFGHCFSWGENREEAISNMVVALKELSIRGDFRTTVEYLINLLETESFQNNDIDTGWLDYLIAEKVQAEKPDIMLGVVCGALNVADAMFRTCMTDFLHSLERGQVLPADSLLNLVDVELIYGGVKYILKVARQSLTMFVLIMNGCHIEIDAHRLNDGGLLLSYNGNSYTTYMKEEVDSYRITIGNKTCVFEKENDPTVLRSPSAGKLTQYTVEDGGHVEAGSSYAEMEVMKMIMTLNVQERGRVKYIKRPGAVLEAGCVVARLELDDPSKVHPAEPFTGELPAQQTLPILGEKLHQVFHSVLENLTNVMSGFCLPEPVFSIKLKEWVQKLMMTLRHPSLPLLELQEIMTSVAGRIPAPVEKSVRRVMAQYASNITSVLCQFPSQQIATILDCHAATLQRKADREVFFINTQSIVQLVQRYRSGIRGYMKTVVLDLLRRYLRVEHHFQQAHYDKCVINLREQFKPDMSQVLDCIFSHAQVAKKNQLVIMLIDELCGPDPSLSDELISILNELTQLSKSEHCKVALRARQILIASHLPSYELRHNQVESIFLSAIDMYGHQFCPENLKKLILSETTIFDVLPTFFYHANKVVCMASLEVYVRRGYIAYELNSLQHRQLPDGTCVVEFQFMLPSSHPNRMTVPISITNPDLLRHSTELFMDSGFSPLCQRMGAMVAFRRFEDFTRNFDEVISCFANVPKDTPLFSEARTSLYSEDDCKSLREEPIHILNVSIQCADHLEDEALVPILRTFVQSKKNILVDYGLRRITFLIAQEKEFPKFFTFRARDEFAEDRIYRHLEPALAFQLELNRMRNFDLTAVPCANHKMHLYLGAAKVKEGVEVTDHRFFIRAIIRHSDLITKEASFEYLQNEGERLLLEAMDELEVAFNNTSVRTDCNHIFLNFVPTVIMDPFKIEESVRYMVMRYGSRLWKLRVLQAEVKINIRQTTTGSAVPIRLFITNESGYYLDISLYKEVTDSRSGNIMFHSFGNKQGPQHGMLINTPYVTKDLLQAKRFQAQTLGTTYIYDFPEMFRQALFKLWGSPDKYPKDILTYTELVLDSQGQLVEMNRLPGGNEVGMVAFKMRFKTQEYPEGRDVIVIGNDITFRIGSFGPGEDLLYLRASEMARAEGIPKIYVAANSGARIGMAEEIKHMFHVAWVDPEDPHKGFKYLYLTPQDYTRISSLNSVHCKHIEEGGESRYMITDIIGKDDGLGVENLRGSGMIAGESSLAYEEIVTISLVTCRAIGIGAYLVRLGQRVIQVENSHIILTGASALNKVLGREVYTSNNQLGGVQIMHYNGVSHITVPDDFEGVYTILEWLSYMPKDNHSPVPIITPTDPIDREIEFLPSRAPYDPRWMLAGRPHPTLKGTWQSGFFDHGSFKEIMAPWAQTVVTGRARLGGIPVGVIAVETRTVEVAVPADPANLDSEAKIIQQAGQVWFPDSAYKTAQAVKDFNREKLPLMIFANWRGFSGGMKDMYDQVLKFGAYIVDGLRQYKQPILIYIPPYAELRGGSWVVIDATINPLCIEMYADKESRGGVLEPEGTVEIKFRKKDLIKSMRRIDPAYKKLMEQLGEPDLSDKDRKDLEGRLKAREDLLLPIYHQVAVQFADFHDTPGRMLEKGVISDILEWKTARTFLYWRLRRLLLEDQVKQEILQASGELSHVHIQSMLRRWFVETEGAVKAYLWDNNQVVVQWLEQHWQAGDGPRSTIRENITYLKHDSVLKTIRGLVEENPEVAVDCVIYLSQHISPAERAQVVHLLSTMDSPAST
Experimental: The hACC2-inhibitory action of the substances of the present invention was measured in the hACC2 assay described in the paragraphs below.
Essentially, the enzyme activity is measured by quantifying the adenosine diphosphate (ADP) formed as a byproduct of the enzyme reactions using the ADP-Glo™ detection system from Promega. In this test, initially the adenosine triphosphate (ATP) not consumed in the enzyme reaction is converted quantitatively with an adenylate cyclase (“ADP-GLO reagent”) into cAMP, the adenylate cyclase is then stopped and (“kinase detection reagent”) the ADP formed is subsequently converted into ATP, which is converted in a luciferase-based reaction into a glow luminescence signal.
The concentration of the hACC2 was adapted to the respective activity of the enzyme and adjusted such that the assay operated in the linear range. Typical concentrations were in the range of 2 ng/μl. […] The amount of light emitted was taken as a measure for the amount of ADP formed and thus for the enzyme activity of the hACC2.

Miapaca = assay: Cell proliferation assay (CellTiter-Glo, 96 h), Miapaca; assay type: cell-based; settings: Homo sapiens, MIA PaCa-2
Experimental: as §1, §2

KM12 = assay: Cell proliferation assay (CellTiter-Glo, 96 h), KM12; assay type: cell-based; settings: Homo sapiens, 96-hour incubation
Experimental: as §1, §2

[4] = molecular target: acetyl-CoA carboxylase 2 (ACC2) (Homo sapiens, UniProt O00763); assay: Human ACC2 enzyme assay, Assay A2 (HTRF ADP immunoassay);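 further: ADP generated by ACC2 quantified via competitive time-resolved FRET between europium cryptate anti-ADP antibody and d2-tagged ADP, enzyme kept in linear range near 0.6 ng/µl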
Sequence of acetyl-CoA carboxylase 2 (ACC2) (O00763 39-2458 limits assumed): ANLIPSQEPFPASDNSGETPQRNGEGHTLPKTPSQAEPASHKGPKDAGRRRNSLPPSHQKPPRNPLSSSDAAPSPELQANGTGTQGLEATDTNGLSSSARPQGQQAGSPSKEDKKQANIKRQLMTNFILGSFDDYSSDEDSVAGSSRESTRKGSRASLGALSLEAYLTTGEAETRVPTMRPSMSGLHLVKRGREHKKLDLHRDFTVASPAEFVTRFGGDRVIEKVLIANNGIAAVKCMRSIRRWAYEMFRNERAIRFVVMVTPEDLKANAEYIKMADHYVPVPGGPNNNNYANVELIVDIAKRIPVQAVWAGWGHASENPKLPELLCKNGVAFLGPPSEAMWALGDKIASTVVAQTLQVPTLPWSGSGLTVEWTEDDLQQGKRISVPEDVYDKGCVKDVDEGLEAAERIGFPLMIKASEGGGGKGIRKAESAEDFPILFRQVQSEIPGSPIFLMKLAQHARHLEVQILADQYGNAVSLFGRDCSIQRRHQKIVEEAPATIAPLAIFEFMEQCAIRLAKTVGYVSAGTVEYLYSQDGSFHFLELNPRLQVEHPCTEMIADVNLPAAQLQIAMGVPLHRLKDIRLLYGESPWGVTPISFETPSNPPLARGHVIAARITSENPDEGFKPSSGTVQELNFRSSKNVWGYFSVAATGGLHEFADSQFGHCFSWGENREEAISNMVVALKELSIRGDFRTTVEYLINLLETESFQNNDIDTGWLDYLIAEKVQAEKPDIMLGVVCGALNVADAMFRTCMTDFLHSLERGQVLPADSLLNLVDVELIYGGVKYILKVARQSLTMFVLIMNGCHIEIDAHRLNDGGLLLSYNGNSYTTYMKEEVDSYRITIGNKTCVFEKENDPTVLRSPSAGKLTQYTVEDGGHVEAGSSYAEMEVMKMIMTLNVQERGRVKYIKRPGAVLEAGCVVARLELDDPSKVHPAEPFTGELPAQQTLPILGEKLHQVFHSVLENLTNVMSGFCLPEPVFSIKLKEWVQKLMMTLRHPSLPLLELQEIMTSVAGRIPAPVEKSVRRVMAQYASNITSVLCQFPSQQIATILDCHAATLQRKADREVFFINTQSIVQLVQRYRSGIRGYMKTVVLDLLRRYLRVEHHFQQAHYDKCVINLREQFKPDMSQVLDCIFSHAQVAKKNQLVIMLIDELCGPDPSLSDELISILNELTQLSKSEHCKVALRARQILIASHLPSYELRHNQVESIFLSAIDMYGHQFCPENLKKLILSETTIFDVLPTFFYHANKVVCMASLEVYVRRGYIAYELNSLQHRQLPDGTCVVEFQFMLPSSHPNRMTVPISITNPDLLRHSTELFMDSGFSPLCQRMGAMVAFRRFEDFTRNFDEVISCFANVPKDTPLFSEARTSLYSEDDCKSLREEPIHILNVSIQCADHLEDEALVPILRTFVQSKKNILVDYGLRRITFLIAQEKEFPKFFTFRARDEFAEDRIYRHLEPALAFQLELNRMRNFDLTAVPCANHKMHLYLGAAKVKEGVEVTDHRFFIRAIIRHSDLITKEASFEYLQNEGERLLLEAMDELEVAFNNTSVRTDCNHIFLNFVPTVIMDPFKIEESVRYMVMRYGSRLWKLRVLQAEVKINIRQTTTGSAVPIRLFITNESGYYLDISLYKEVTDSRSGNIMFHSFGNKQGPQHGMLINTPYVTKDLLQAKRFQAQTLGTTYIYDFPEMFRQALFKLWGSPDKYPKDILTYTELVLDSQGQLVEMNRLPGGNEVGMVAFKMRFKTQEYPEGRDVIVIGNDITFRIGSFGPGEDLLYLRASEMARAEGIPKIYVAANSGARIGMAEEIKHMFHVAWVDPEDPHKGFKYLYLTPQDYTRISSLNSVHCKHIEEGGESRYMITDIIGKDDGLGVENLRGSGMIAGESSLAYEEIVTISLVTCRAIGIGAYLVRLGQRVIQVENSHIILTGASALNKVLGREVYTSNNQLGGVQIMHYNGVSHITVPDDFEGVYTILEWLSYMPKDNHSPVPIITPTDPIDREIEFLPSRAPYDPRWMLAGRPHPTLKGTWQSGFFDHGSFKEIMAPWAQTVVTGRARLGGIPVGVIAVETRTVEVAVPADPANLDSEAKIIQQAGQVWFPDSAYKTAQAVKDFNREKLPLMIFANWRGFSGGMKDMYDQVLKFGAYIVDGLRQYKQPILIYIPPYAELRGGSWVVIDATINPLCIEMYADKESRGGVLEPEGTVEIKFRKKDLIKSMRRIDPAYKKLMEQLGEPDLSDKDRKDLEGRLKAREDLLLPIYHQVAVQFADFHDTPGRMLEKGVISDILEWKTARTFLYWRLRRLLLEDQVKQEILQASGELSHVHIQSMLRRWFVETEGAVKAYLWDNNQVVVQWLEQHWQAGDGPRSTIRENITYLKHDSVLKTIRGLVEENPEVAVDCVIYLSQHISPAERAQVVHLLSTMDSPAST
Experimental: The inhibitory activity of the substances of this invention with regard to acetyl-CoA carboxylase 2 (ACC2) was measured using the ACC2 assay described in the paragraphs below. The basic principle of the assay is the measurement of adenosine diphosphate (ADP), which is formed as a by-product, by means of an HTRF®-based competitive immunoassay (HTRF=Homogeneous Time Resolved Fluorescence).
The amount of complex of d2-labelled ADP and europium cryptate-labelled anti-ADP antibody was then determined by measuring the resonance energy transfer of europium cryptate to d2.

recombinant human ACC1 = recombinant human ACC1 (Homo sapiens, UniProt Q13085); assay: Human ACC1 enzyme assay, Assay A1 (HTRF ADP immunoassay);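 further: ADP generated by the enzyme quantified via competitive time-resolved FRET, read as europium cryptate to d2 energy transfer after 1 h at 22 °C with labelled ADP tracer and anti-ADP antibody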
Experimental: The inhibitory activity of the substances of this invention with regard to acetyl-CoA carboxylase 1 (ACC1) was measured using the ACC1 assay described in the paragraphs below. The basic principle of the assay is the measurement of adenosine diphosphate (ADP), which is formed as a by-product, by means of an HTRF®-based competitive immunoassay (HTRF=Homogeneous Time Resolved Fluorescence).
Typical concentrations were in the range of 2.5 ng/μl.
The amount of complex between d2-labelled ADP and europium cryptate-labelled anti-ADP antibody was then determined by measuring the resonance energy transfer from the europium cryptate to d2.

[5] = Assay B1, read-out: ACC 1 (=B1) IC50
[6] = MCF7, Table 7, 96-hour incubation
[7] = MCF7, 10 mg/kg oral, MCF-7 tumour in nude mice, vs vehicle

| SMILES | IC50 [1, 5] [nM] | inhibition in vivo at 10 mg/kg ([2]; MCF7, po, 10 mg/kg, vs Vehicle) [%] | IC50 (MCF7; [6]) [nM] | IC50 [3] [nM] | IC50 [1] [nM] | further results |
| --- | --- | --- | --- | --- | --- | --- |
| Cc1ccc(-c2ccc(Cl)cc2)cc1C1=C(O)C2(CCC(OCC(F)(F)F)CC2)NC1=O (centres unmarked) [1-33, 3-(4′-chloro-4-methylbiphenyl-3-yl)-4-hydroxy-8-(2,2,2-trifluoroethoxy)-1-azaspiro[4.5]dec-3-en-2-one] | 234 | 88 | 27 | 2010 | – | IC50 (HCC-1937; 96-hour incubation): 108 nM; IC50 (MDA-MB-436; MDA-MB-436, 96-hour incubation): 70 nM; IC50 (MDA-MB-468; MDA-MB-468, 96-hour incubation): 74 nM; IC50 (Miapaca; 96-hour incubation): 193 nM |
| Cc1ccc(-c2ccc(Cl)cc2)c(C)c1C1=C(O)C2(CCOCC2)NC1=O [1-1, 3-(4′-chloro-2,4-dimethylbiphenyl-3-yl)-4-hydroxy-8-oxa-1-azaspiro[4.5]dec-3-en-2-one] | – | 39 | 800 | > 20000 | 245 | IC50 (HCC-1937; 96-hour incubation): 1080 nM; IC50 (MDA-MB-436; MDA-MB-436, 96-hour incubation): 140 nM; IC50 (MDA-MB-468; MDA-MB-468, 96-hour incubation): 274 nM; IC50 (Miapaca; 96-hour incubation): 827 nM |
| Cc1ccc(-c2ccc(Cl)cc2)c(C)c1C1=C(O)[C@]2(CC[C@H](OCC(F)(F)F)CC2)NC1=O [1-30, (5s,8s)-3-(4′-chloro-2,4-dimethylbiphenyl-3-yl)-4-hydroxy-8-(2,2,2-trifluoroethoxy)-1-azaspiro[4.5]dec-3-en-2-one] | 481 | 82 | 48 | 976 | – | – |
| COC1CCC2(CC1)NC(=O)C(c1cc(-c3ccc(Cl)cc3)ccc1Cl)=C2O (centres unmarked) [1-11, 3-(4,4′-dichlorobiphenyl-3-yl)-4-hydroxy-8-methoxy-1-azaspiro[4.5]dec-3-en-2-one] | – | 87 | 124 | 4470 | 157 | – |
| Cc1ccc(-c2ccc(Cl)cc2)cc1C1=C(O)C2(CCC(C)(C)CC2)NC1=O [1-20, 3-(4′-chloro-4-methylbiphenyl-3-yl)-4-hydroxy-8,8-dimethyl-1-azaspiro[4.5]dec-3-en-2-one] | 230 | 87 | 40 | 1130 | – | – |
| O=C1N[C@]2(CC[C@@H](OCC(F)(F)F)CC2)C(O)=C1c1cc(-c2ccc(Cl)cc2)ccc1Cl [1-29, (5s,8s)-3-(4,4′-dichlorobiphenyl-3-yl)-4-hydroxy-8-(2,2,2-trifluoroethoxy)-1-azaspiro[4.5]dec-3-en-2-one] | – | 93 | 32 | 2620 | 153 | IC50 (KM12): 132 nM |
| Cc1ccc(-c2ccc(F)c(F)c2)cc1C1=C(O)C2(CCC3(CCCO3)CC2)NC1=O (centres unmarked) [1-35, 11-(3′,4′-difluoro-4-methylbiphenyl-3-yl)-12-hydroxy-1-oxa-9-azadispiro[4.2.4.2]tetradec-11-en-10-one] | – | 31 | 94 | 6910 | 388 | – |
| Cc1ccc(-c2ccc(Cl)cc2)cc1C1=C(O)[C@]2(CC[C@H](C)CC2)NC1=O [1-76, 3-(4′-chloro-4-methylbiphenyl-3-yl)-4-hydroxy-8-methyl-1-azaspiro[4.5]dec-3-en-2-one] | 163 | 96 | – | 432 | – | – |
| COC1CCC2(CC1)NC(=O)C(c1cc(-c3ccc(Cl)cc3)c(C)cc1C)=C2O (centres unmarked) [1-7, 3-(4′-chloro-4,6-dimethylbiphenyl-3-yl)-4-hydroxy-8-methoxy-1-azaspiro[4.5]dec-3-en-2-one] | – | 89 | 57 | 328 | 1460 | – |
| Cc1ccc(-c2ccc(Cl)cc2)cc1C1=C(O)C2(CCCOC2)NC1=O (centres unmarked) [1-5, 3-(4′-chloro-4-methylbiphenyl-3-yl)-4-hydroxy-7-oxa-1-azaspiro[4.5]dec-3-en-2-one] | 246 | 82 | 230 | 11000 | – | – |
| COCC1CCC2(CC1)NC(=O)C(c1c(C)ccc(-c3ccc(Cl)cc3)c1C)=C2O (centres unmarked) [1-53, 3-(4′-chloro-2,4-dimethylbiphenyl-3-yl)-4-hydroxy-8-(methoxymethyl)-1-azaspiro[4.5]dec-3-en-2-one] | – | 43 | 70 | 632 | 243 | – |
| Cc1cc(C)c(-c2ccc(Cl)cc2)cc1C1=C(O)[C@]2(CC[C@@]3(CCCO3)CC2)OC1=O [2-30, (5r,8s)-3-(4′-chloro-4,6-dimethylbiphenyl-3-yl)-4-hydroxy-1,9-dioxadispiro[4.2.4.2]tetradec-3-en-2-one] | – | – | – | 243 | 696 | IC50 (HCC-1937; HCC-1937 cells): 1500 nM; inhibition in vivo at 10 mg/kg [2, 7]: 36%; IC50 (MCF7; MCF7 cells): 64 nM; IC50 (MDA-MB-436; MDA-MB-436 cells): 115 nM; IC50 (MDA-MB-468; MDA-MB-468 cells): 153 nM; IC50 (Miapaca; MiaPaca cells): 255 nM |
| COC[C@H]1CC[C@]2(CC1)NC(=O)C(c1cc(-c3ccc(F)c(F)c3)ccc1C)=C2O [1-112, (5s,8s)-3-(3′,4′-Difluoro-4-methylbiphenyl-3-yl)-4-hydroxy-8-(methoxymethyl)-1-azaspiro[4.5]dec-3-en-2-one] | – | – | 79 | 8430 | 200 | IC50 (KM12): 174 nM; IC50 [4]: 3910 nM; IC50 (recombinant human ACC1): 167 nM |
| COCC1CCC2(CC1)NC(=O)C(c1cc(-c3ccc(Cl)cc3)ccc1Cl)=C2O (centres unmarked) [1-54, 3-(4,4′-dichlorobiphenyl-3-yl)-4-hydroxy-8-(methoxymethyl)-1-azaspiro[4.5]dec-3-en-2-one] | – | 61 | 88 | 1350 | 157 | – |
| CO[C@H]1CC[C@]2(CC1)NC(=O)C(c1cc(-c3ccc(Cl)cc3)ccc1C)=C2O [1-2, (5s,8s)-3-(4′-chloro-4-methylbiphenyl-3-yl)-4-hydroxy-8-methoxy-1-azaspiro[4.5]dec-3-en-2-one] | – | 96 | 57 | 822 | – | – |
| Cc1ccc(-c2ccc(Cl)cc2)cc1C1=C(O)C2(CCC(C(C)C)CC2)NC1=O (centres unmarked) [1-24, 3-(4′-chloro-4-methylbiphenyl-3-yl)-4-hydroxy-8-(propan-2-yl)-1-azaspiro[4.5]dec-3-en-2-one] | 230 | 91 | 27 | 517 | – | – |
| CO[C@]1(C)CC[C@]2(CC1)NC(=O)C(c1c(C)ccc(-c3ccc(Cl)cc3)c1C)=C2O [1-87, (5r,8r)-3-(4′-chloro-2,4-dimethylbiphenyl-3-yl)-4-hydroxy-8-methoxy-8-methyl-1-azaspiro[4.5]dec-3-en-2-one] | – | 71 | – | 10500 | 378 | IC50 [4]: 7300 nM; IC50 (recombinant human ACC1): 540 nM |
| Cc1ccc(-c2ccc(Cl)cc2)cc1C1=C(O)C2(CCC(OCC(F)(F)F)CC2)OC1=O (centres unmarked) [2-33, 3-(4′-chloro-4-methylbiphenyl-3-yl)-4-hydroxy-8-(2,2,2-trifluoroethoxy)-1-oxaspiro[4.5]dec-3-en-2-one] | – | – | – | 5000 | – | IC50 ([1]; Assay B1, ADP-Glo, read-out: ACC 1 (=B1) IC50): 227 nM; inhibition in vivo at 10 mg/kg [2, 7]: 39%; IC50 (MCF7; MCF7 cells): 246 nM |
| CO[C@H]1CC[C@]2(CC1)NC(=O)C(c1cc(-c3ccc(Cl)cc3)ccc1Cl)=C2O [1-120, (5s,8s)-3-(4,4′-Dichlorobiphenyl-3-yl)-4-hydroxy-8-methoxy-1-azaspiro[4.5]dec-3-en-2-one] | – | – | 70 | 2260 | 145 | IC50 (KM12): 714 nM; IC50 [4]: 1280 nM; IC50 (recombinant human ACC1): 250 nM |
